Test results from ChEMBL document CHEMBL3046640, “Synthesis and antimicrobial activity of bischalcone derivatives” (2013).
Values after ≈ are worked out from the molar mass of the structure shown. Active and inactive are the calls of the source. The rule behind the calls is not given here.

What was measured:
Type in all cases: functional
Rhizopus arrhizus [1] = assay: Antifungal activity against Rhizopus oryzae MTCC 262 assessed as growth inhibition at 100 ug/mL after 3 to 4 days by agar diffusion method; conditions: read-out: DIZ
Aspergillus niger [2] = assay: Antifungal activity against Aspergillus niger ATCC 16404 assessed as growth inhibition at 100 ug/mL after 3 to 4 days by agar diffusion method; conditions: read-out: DIZ
Candida albicans [3] = assay: Antifungal activity against Candida albicans ATCC 10231 assessed as growth inhibition at 100 ug/mL after 3 to 4 days by agar diffusion method; conditions: read-out: DIZ
Pseudomonas aeruginosa [4] = assay: Antibacterial activity against Pseudomonas aeruginosa ATCC 27853 assessed as growth inhibition at 100 ug/mL after 24 hr by cup-plate method; conditions: ATCC 27853, 24 h, read-out: DIZ
Escherichia coli [5] = assay: Antibacterial activity against Escherichia coli ATCC 25922 assessed as growth inhibition at 100 ug/mL after 24 hr by cup-plate method; conditions: ATCC 25922, 24 h, read-out: DIZ
Staphylococcus aureus [6] = assay: Antibacterial activity against Staphylococcus aureus ATCC 25923 assessed as growth inhibition at 100 ug/mL after 24 hr by cup-plate method; conditions: ATCC 25923, 24 h, read-out: DIZ
Rhizopus arrhizus [7] = assay: Antifungal activity against Rhizopus oryzae MTCC 262 assessed as growth inhibition after 48 hr by broth dilution method
Aspergillus niger [8] = assay: Antifungal activity against Aspergillus niger ATCC 16404 assessed as growth inhibition after 48 hr by broth dilution method
Candida albicans [9] = assay: Antifungal activity against Candida albicans ATCC 10231 assessed as growth inhibition after 48 hr by broth dilution method
Pseudomonas aeruginosa [10] = assay: Antibacterial activity against Pseudomonas aeruginosa ATCC 27853 assessed as growth inhibition after 24 hr by broth dilution method
Escherichia coli [11] = assay: Antibacterial activity against Escherichia coli ATCC 25922 assessed as growth inhibition after 24 hr by broth dilution method
Staphylococcus aureus [12] = assay: Antibacterial activity against Staphylococcus aureus ATCC 25923 assessed as growth inhibition after 24 hr by broth dilution method

Row | Compound | zone of inhibition at 100 µg/mL (Rhizopus arrhizus [1]) | zone of inhibition at 100 µg/mL (Aspergillus niger [2]) | zone of inhibition at 100 µg/mL (Candida albicans [3]) | zone of inhibition at 100 µg/mL (Pseudomonas aeruginosa [4]) | zone of inhibition at 100 µg/mL (Escherichia coli [5]) | zone of inhibition at 100 µg/mL (Staphylococcus aureus [6]) | MIC (Rhizopus arrhizus [7]; MTCC 262, 48 h) | MIC (Aspergillus niger [8]; ATCC 16404, 48 h) | MIC (Candida albicans [9]; ATCC 10231, 48 h) | MIC (Pseudomonas aeruginosa [10]; ATCC 27853, 24 h) | MIC (Escherichia coli [11]; ATCC 25922, 24 h) | MIC (Staphylococcus aureus [12]; ATCC 25923, 24 h) | MIC (Rhizopus arrhizus [7]) | MIC (Aspergillus niger [8]) | MIC (Pseudomonas aeruginosa [10]) | MIC (Escherichia coli [11]) | MIC (Candida albicans [9]) | MIC (Staphylococcus aureus [12])
1 | O=C(/C=C/c1ccc(Cl)cc1)c1cc(C(=O)/C=C/c2ccc(Cl)cc2)c(O)cc1O | 10 mm | 10 mm | 10 mm | 15 mm | 10 mm | 10 mm | 50 µg/mL (≈ 114 µM) | 50 µg/mL (≈ 114 µM) | 50 µg/mL (≈ 114 µM) | 25 µg/mL (≈ 56.9 µM) | 50 µg/mL (≈ 114 µM) | 50 µg/mL (≈ 114 µM) |  |  |  |  |  | 
2 | CC(=O)c1cc(C(C)=O)c(OC(=O)c2cccc([N+](=O)[O-])c2)cc1OC(=O)c1cccc([N+](=O)[O-])c1 | < 5 mm | < 5 mm | 5 mm | < 5 mm | < 5 mm | 5 mm |  |  | > 100 µg/mL |  |  | > 100 µg/mL | inactive | inactive | inactive | inactive |  | 
3 | CCN(CC)c1ccc(/C=C/C(=O)c2cc(C(=O)/C=C/c3ccc(N(CC)CC)cc3)c(OC)cc2OC)cc1 | < 5 mm | 5 mm | < 5 mm | 5 mm | < 5 mm | < 5 mm |  | > 100 µg/mL |  | > 100 µg/mL |  |  | inactive |  |  | inactive | inactive | inactive
4 | O=c1cc(-c2ccco2)oc2cc3oc(-c4ccco4)cc(=O)c3cc12 | 5 mm | 10 mm | 15 mm | 15 mm | 15 mm | 15 mm | > 100 µg/mL | 50 µg/mL (≈ 144 µM) | 12.5 µg/mL (≈ 36.1 µM) | 12.5 µg/mL (≈ 36.1 µM) | 25 µg/mL (≈ 72.2 µM) | 25 µg/mL (≈ 72.2 µM) |  |  |  |  |  | 
5 | COc1cc(OC)c(C(=O)/C=C/c2cc(OC)c(OC)c(OC)c2)cc1C(=O)/C=C/c1cc(OC)c(OC)c(OC)c1 | < 5 mm | < 5 mm | 5 mm | 5 mm | 10 mm | 5 mm |  |  | > 100 µg/mL | > 100 µg/mL | 50 µg/mL (≈ 86.4 µM) | > 100 µg/mL | inactive | inactive |  |  |  | 
6 | COc1cc(OC)c(C(=O)/C=C/c2ccco2)cc1C(=O)/C=C/c1ccco1 | 5 mm | 10 mm | 10 mm | < 5 mm | < 5 mm | 10 mm | > 100 µg/mL | 50 µg/mL (≈ 132 µM) | 50 µg/mL (≈ 132 µM) |  |  | 50 µg/mL (≈ 132 µM) |  |  | inactive | inactive |  | 
7 | CC(=O)c1cc(C(C)=O)c(OC(=O)c2ccccc2[N+](=O)[O-])cc1OC(=O)c1ccccc1[N+](=O)[O-] | < 5 mm | < 5 mm | < 5 mm | < 5 mm | 5 mm | 10 mm |  |  |  |  | > 100 µg/mL | 50 µg/mL (≈ 102 µM) | inactive | inactive | inactive |  | inactive | 
8 | COc1cccc(/C=C/C(=O)c2cc(C(=O)/C=C/c3cccc(OC)c3)c(O)cc2O)c1 | 15 mm | 10 mm | 15 mm | 10 mm | 10 mm | 10 mm | 25 µg/mL (≈ 58.1 µM) | 50 µg/mL (≈ 116 µM) | 25 µg/mL (≈ 58.1 µM) | 50 µg/mL (≈ 116 µM) | 50 µg/mL (≈ 116 µM) | 50 µg/mL (≈ 116 µM) |  |  |  |  |  | 
9 | Cc1ccccc1-c1cc(=O)c2cc3c(=O)cc(-c4ccccc4C)oc3cc2o1 | 5 mm | 5 mm | 10 mm | 10 mm | 5 mm | 10 mm | > 100 µg/mL | > 100 µg/mL | 50 µg/mL (≈ 127 µM) | 50 µg/mL (≈ 127 µM) | > 100 µg/mL | 50 µg/mL (≈ 127 µM) |  |  |  |  |  | 
10 | COc1cccc(/C=C/C(=O)c2cc(C(=O)/C=C/c3cccc(OC)c3)c(OC)cc2OC)c1 | < 5 mm | < 5 mm | 5 mm | < 5 mm | 5 mm | < 5 mm |  |  | > 100 µg/mL |  | > 100 µg/mL |  | inactive | inactive | inactive |  |  | inactive
11 | COc1cccc(-c2cc(=O)c3cc4c(=O)cc(-c5cccc(OC)c5)oc4cc3o2)c1 | 15 mm | 15 mm | 15 mm | 10 mm | 5 mm | 10 mm | 25 µg/mL (≈ 58.6 µM) | 25 µg/mL (≈ 58.6 µM) | 25 µg/mL (≈ 58.6 µM) | 50 µg/mL (≈ 117 µM) | > 100 µg/mL | 50 µg/mL (≈ 117 µM) |  |  |  |  |  | 
12 | O=C(/C=C/c1ccco1)c1cc(C(=O)/C=C/c2ccco2)c(O)cc1O | 10 mm | 15 mm | 15 mm | 15 mm | 15 mm | 15 mm | 50 µg/mL (≈ 143 µM) | 25 µg/mL (≈ 71.4 µM) | 12.5 µg/mL (≈ 35.7 µM) | 12.5 µg/mL (≈ 35.7 µM) | 12.5 µg/mL (≈ 35.7 µM) | 25 µg/mL (≈ 71.4 µM) |  |  |  |  |  | 
13 | O=c1cc(-c2ccc(Cl)cc2)oc2cc3oc(-c4ccc(Cl)cc4)cc(=O)c3cc12 | 15 mm | 10 mm | 15 mm | 15 mm | 15 mm | 15 mm | 25 µg/mL (≈ 57.4 µM) | 50 µg/mL (≈ 115 µM) | 12.5 µg/mL (≈ 28.7 µM) | 25 µg/mL (≈ 57.4 µM) | 25 µg/mL (≈ 57.4 µM) | 12.5 µg/mL (≈ 28.7 µM) |  |  |  |  |  | 
14 | O=c1cc(-c2cccc(Cl)c2)oc2cc3oc(-c4cccc(Cl)c4)cc(=O)c3cc12 | 10 mm | 15 mm | 10 mm | 15 mm | 10 mm | 15 mm | 50 µg/mL (≈ 115 µM) | 25 µg/mL (≈ 57.4 µM) | 50 µg/mL (≈ 115 µM) | 25 µg/mL (≈ 57.4 µM) | 50 µg/mL (≈ 115 µM) | 25 µg/mL (≈ 57.4 µM) |  |  |  |  |  | 
